Assay results as given in US7101882B2, “Morpholin-acetamide derivatives for the treatment of inflammatory diseases” (Glaxo Group Limited, priority 2000, dated 2006).

Biological target: eosinophils
Assay: Eosinophil chemotaxis assay (assay (b))
Assay type: cell-based, human
Procedure: (b) Eosinophil Chemotaxis Assay.
Compounds were evaluated for their inhibitory effect on eosinophil chemotaxis. Eosinophils were purified from human peripheral blood by standard CD16 cell depletion using a Miltenyi cell separation column and a magnetic Super Macs magnet as previously described (Motegi & Kita, 1998; J. Immunology. 161:4340-6). Cells were re-suspended in RPMI 1640/10% FCS solution and incubated with calcein-AM (Molecular Probes) at 37° C. for 30 mins. Following incubation, the eosinophils were centrifuged at 400 g for 5 min and re-suspended in RPMI/FCS at 2.2 million/ml. Cells were then incubated in the presence of increasing concentration of compounds (1 pM to 30 μM) at 37° C. for 30 mins. For control responses cells were incubated with RPMI/FCS only. The agonist eotaxin (either a concentration response curve or for the functional inhibition curves an EC80 concentration) was added to the lower chamber of a 96 well chemotaxis plate (5 μm filter: Receptor Technologies). […] Cells remaining on top of the chemotaxis filter were removed and the number of eosinophils which had migrated were quantified by reading the plate on a fluorescent plate reader. Inhibition curves for the effect of compounds on eosinophil chemotaxis were analysed by fitting the data with a four parameter logistic equation. […]

CCR-3 Eosinophil Chemotaxis Assay (fpKi): 8.2
SMILES: NS(=O)(=O)c1cccc(CC(=O)NC[C@H]2CN(Cc3ccc(Cl)c(Cl)c3)CCO2)c1 [Example 162, 2-[3-(Aminosulfonyl)phenyl]-N-{[(2S)-4-(3,4-dichlorobenzyl)morpholin-2-yl]methyl}acetamide]
